Source: patent US20150038493A1, “COMPOUNDS THAT TRAP ALPHA-OXOALDEHYDES AND ALPHA-BETA-UNSATURATED ALDEHYDES, META-COMPOUNDS CONTAINING SUCH COMPOUNDS, AND USE OF SAID COMPOUNDS IN TREATING ILLNESSES RELATED TO THE ACCUMULATION OF AGES AND ALES” (PHARMAMENS, priority 2011, published 2015)
Peptide text beside a SMILES is read from it.

What was measured:
[1] = system: advanced glycation end-products (AGEs) on human albumin; test: Inhibition of AGE formation: fluorescence of human albumin incubated with glucose; type: biochemical; settings: human albumin 50 g/l, glucose 500 mM, compound 50 mM, 37° C., 20 days; ex 370 nm, em 440 nm
Method: Human albumin at physiological concentration (50 g/l) is incubated with glucose (500 mM in phosphate buffer at 100 mM, pH=7.4) at 37° C. for 20 days in the presence or absence of the compounds tested (50 mM). A measurement of the fluorescence (reading at 440 nm after excitation at 370 nm) is then carried out on each sample. The results are expressed in the form of a fluorescence read (sample)/maximum fluorescence observed (control without scavenger compound, D=20) ratio.
A solution of human albumin (50 g/l) and of glucose (500 mM) in phosphate buffer (100 mM, pH=7.4) is prepared. 1000 μl of the previous solution are then immediately charged to tubes, each containing one of the compounds tested (50 μmol). The resulting solutions are homogenized (vortex for 10 sec) and then immediately filtered through a sterile 0.2 μm membrane into sterile capped Eppendorf tubes (1.5 ml), under a vertical laminar flow filtering hood. The tubes are then stoppered and placed at 37° C., in the dark, for 20 days. After a return to ambient temperature (22° C.), a measurement of the fluorescence (λex=370 nm, λem=440 nm) is carried out on 200 μl of each sample.

[2] = Scavenging of glyoxal (GO) generated from glucose incubated at 37° C., LC-MS assay after 2,3-diaminonaphthalene derivatization; settings: for GO scavenging activity (in words): compound 100 μM added on 7th day, FIG. 1; for level of GO observed after 14 days: glucose 50 mM, phosphate buffer pH 7.4, 37° C., compound added on 7th day, final concentration 100 μM
Method: (§1) An aqueous solution of glucose (50 mM in phosphate buffer at 100 mM, pH=7.4) is incubated at 37° C. for 14 days in order to “naturally” generate glyoxal (GO) and methylglyoxal (MGO). The compound tested is introduced on the 7th day (final concentration=100 μM). The GO and MGO concentrations of the medium are measured at regular intervals by LC-MS assaying, after derivatization with 2,3-diaminonaphthalene, in order to determine the effect of the compound tested.
(§2) The results of the assays are compared with those obtained without the addition of scavenger compound (control) and with those obtained during the addition of a reference compound (aminoguanidine, D-Dap, D-Dap-L-Leu, 8-hydroxyquinoline).
(§3) A solution S0 of glucose (50 mM) in phosphate buffer (100 mM, pH=7.4) is prepared and then filtered through a sterile 0.2 μm membrane into a sterile Falcon tube, under a vertical laminar flow filtering hood. 1000 μl of solution S0 are then charged to several sterile capped Eppendorf tubes (1.5 ml) which are then stoppered and placed at 37° C., in the dark, for 14 days (“control” series). The rest of the solution S0 is incubated in the same way, in a Falcon tube. The Eppendorf tubes are then removed, one by one, at regular intervals (approximately 24 h) and are immediately placed at −20° C. while awaiting analysis.
(§4) On D=7, an aqueous solution S1 of the compound tested (5 mM) is prepared and then filtered through a sterile 0.2 μm membrane into a sterile Falcon tube, under a vertical laminar flow filtering hood. A mixture of the solution S1 (140 μl) and of the remaining solution S0, incubated for 7 days at 37° C. (6860 μl), is then prepared before being divided up between 6 sterile Eppendorf tubes (6×1000 μl) which are subsequently stoppered and placed at 37° C., in the dark, for 7 days (“test” series). These tubes are removed, one by one, at regular intervals (approximately 24 h) and are immediately placed at −20° C. while awaiting analysis. On D=14, the tubes of the “control” and “test” series are thawed and are each treated with 100 μl of a solution of 2,3-diaminonaphthalene (10 mM) in order to derivatize the GO and the MGO, respectively in the form of GO-DAN and of MGO-DAN. After homogenization (vortex for 10 sec), the tubes are left to stand for 24 h, at 20° C., in the dark. The GO-DAN and the MGO-DAN are then assayed in each sample by LC-MS (Shimadzu LCMS-2020), by external calibration carried out with standard solutions of GO-DAN and of MGO-DAN, according to the following conditions. Column: Shim-pack XR-ODS II (75×2 mm, 80 Å), temperature: 40° C., eluent: water/methanol (50/50)+0.1% of formic acid, flow rate: 300 μl/min, analysis time: 10 min, injection volume: 1 μl, detection: ESI+ in SIM mode (m/z=181.1 and 195.1) with the following parameters: interface voltage=4.5 kV, DL voltage=10 V, Q-array DC=0 V, Q-array RF=40 V (for m/z=181.1) or 10 V (for m/z=195.1). The GO-DAN and MGO-DAN compounds are respectively detected at the retention times of 3.9 min and 5.4 min.

[3] = Scavenging of methylglyoxal (MGO) generated from glucose incubated at 37° C., LC-MS assay after 2,3-diaminonaphthalene derivatization; settings: for MGO scavenging activity (in words): compound 100 μM added on 7th day, FIG. 2; for level of MGO observed after 14 days: glucose 50 mM, phosphate buffer pH 7.4, 37° C., compound added on 7th day, final concentration 100 μM
Method: as §1, §2, §3, §4

## NC[C@@H](N)C(=O)N1CCOCC1 [Compound 4e]
[1]
  relative fluorescence (fluorescence read/maximum fluorescence of control D=20): 19%

## NC[C@@H](N)C(=O)N1CCN(C2CCCCC2)CC1 [Compound 4h, (2R)-2,3-diamino-1-(4-cyclohexylpiperazin-1-yl)propan-1-one]
[2]
  GO scavenging activity (in words): activity close to or even greater than that of the reference compound, aminoguanidine
[3]
  MGO scavenging activity (in words): activity close to or even greater than that of the reference compound, aminoguanidine

## C[C@@H](N)C(=O)N1CCOCC1 [D-Ala-Morpholine]
[1]
  relative fluorescence (fluorescence read/maximum fluorescence of control D=20): 78%

## N=C(N)NN [aminoguanidine, reference compound]
[2]
  level of GO observed after 14 days: 68.4 µM
[3]
  level of MGO observed after 14 days: 1.20 µM
[1]
  relative fluorescence (fluorescence read/maximum fluorescence of control D=20): 3%

## NC[C@@H](N)C(=O)N1CCN(C(=O)Cc2ccc(O)c3ncccc23)CC1 [Compound 13, (2R)-2,3-diamino-1-{4-[2-(8-hydroxyquinolin-5-yl)acetyl]piperazin-1-yl}propan-1-one]
[2]
  GO scavenging activity (in words): good capacity for scavenging of GO and of MGO
  level of GO observed after 14 days: 2.6 µM
[3]
  MGO scavenging activity (in words): good capacity for scavenging of GO and of MGO
  level of MGO observed after 14 days: 0.12 µM
[1]
  relative fluorescence (fluorescence read/maximum fluorescence of control D=20): 2%

## NCCC(=O)N[C@@H](Cc1cnc[nH]1)C(=O)O [carnosine]
[1]
  relative fluorescence (fluorescence read/maximum fluorescence of control D=20): 60%

## CC1CCN(C(=O)[C@H](N)CN)CC1 [Compound 4c]
[2]
  GO scavenging activity (in words): activity close to or even greater than that of the reference compound, aminoguanidine
[3]
  MGO scavenging activity (in words): activity close to or even greater than that of the reference compound, aminoguanidine

## CC(C)C[C@H](NC(=O)[C@H](N)CN)C(=O)O [D-Dap-L-Leu] (HELM PEPTIDE1{[NC[C@@H](N)C(=O)[*:2]].L}$$$$V2.0)
[1]
  relative fluorescence (fluorescence read/maximum fluorescence of control D=20): 43%

## NC[C@@H](N)C(=O)N1CCN(C(=O)[C@H](N)CN)CC1 [Compound 6a, (2R,2′R)-1,1′-(piperazine-1,4-diyl)bis(2,3-diaminopropan-1-one)]
[2]
  GO scavenging activity (in words): activity close to or even greater than that of the reference compound, aminoguanidine
[3]
  MGO scavenging activity (in words): activity close to or even greater than that of the reference compound, aminoguanidine

## Oc1cccc2cccnc12 [8-hydroxyquinoline]
[1]
  relative fluorescence (fluorescence read/maximum fluorescence of control D=20): 40%

## NC[C@@H](N)C(=O)N1CCN(Cc2ccc(O)c3ncccc23)CC1 [Compound 11, (2R)-2,3-diamino-1-{4-[(8-hydroxyquinolin-5-yl)methyl]piperazin-1-yl}propan-1-one]
[2]
  GO scavenging activity (in words): good capacity for scavenging of GO and of MGO
  level of GO observed after 14 days: 3.0 µM
[3]
  MGO scavenging activity (in words): good capacity for scavenging of GO and of MGO
  level of MGO observed after 14 days: 0.19 µM
[1]
  relative fluorescence (fluorescence read/maximum fluorescence of control D=20): 3%
